Assay results from patent publication US5216005A, “Immunosuppressive analogues and derivatives of succinylacetone” (priority 1990, dated 1993).

Test system: adjuvant induced arthritis
Assay: adjuvant induced arthritis in rats, overall arthritis score; intraarticular right paw, per kg: succinylacetone 325 μg, methyl ester 150 μg, 4-acetyl-5-oxohexanoate 560 μg
Type: in vivo, rat

SMILES: CC(=O)CC(=O)CCC(=O)O [Succinylacetone, 4,6-dioxoheptanoic acid]
- overall arthritis score (Exp. I (treated from same day), day 14): 0.6 ± 1.3
- overall arthritis score (Exp. I (treated from same day), day 16): 0.8 ± 1.8
- overall arthritis score (Exp. I (treated from same day), day 18): 1.4 ± 2.6
- overall arthritis score (Exp. I (treated from same day), day 20): 3 ± 5
- overall arthritis score (Exp. I (treated from same day), day 22): 3.8 ± 5
- overall arthritis score (Exp. I (treated from same day), day 24): 4 ± 3.9
- overall arthritis score (Exp. I (treated from same day), day 26): 5 ± 4.3
- overall arthritis score (Exp. II (treated from day 4), day 14): 3.2 ± 3.8
- overall arthritis score (Exp. II (treated from day 4), day 16): 3.2 ± 3.8
- overall arthritis score (Exp. II (treated from day 4), day 18): 4.8 ± 3.6
- overall arthritis score (Exp. II (treated from day 4), day 20): 7 ± 2.3
- overall arthritis score (Exp. II (treated from day 4), day 22): 6.2 ± 2.4
- overall arthritis score (Exp. II (treated from day 4), day 24): 6 ± 2.7
- overall arthritis score (Exp. II (treated from day 4), day 26): 7.8 ± 3
- overall arthritis score (Exp. III (treated from day 14), day 14): 2.0 ± 3.9
- overall arthritis score (Exp. III (treated from day 14), day 16): 2.0 ± 3.9
- overall arthritis score (Exp. III (treated from day 14), day 18): 2.0 ± 2.9
- overall arthritis score (Exp. III (treated from day 14), day 20): 2.4 ± 2.9
- overall arthritis score (Exp. III (treated from day 14), day 22): 4.0 ± 3.7
- overall arthritis score (Exp. III (treated from day 14), day 24): 2.8 ± 2.8
- overall arthritis score (Exp. III (treated from day 14), day 26): 3.4 ± 2.7
- effect on arthritis (comparison of treatment schedules, in words): also effective when administered 14 days subsequent to injection
